Measurements from ChEMBL document CHEMBL4507294, “Data for DCP probe MSD-CYP11B2” (2021).

What was measured:
[1] = target: NUAK family SNF1-like kinase 1 (Homo sapiens) (UniProt O60285); settings: Compound concentration 1000.0 nM
[2] = target: Calcium/calmodulin-dependent protein kinase type 1B (Homo sapiens) (UniProt Q6P2M8); settings: Compound concentration 1000.0 nM
[3] = target: Calcium/calmodulin-dependent protein kinase type II subunit alpha (Homo sapiens) (UniProt Q9UQM7); settings: Compound concentration 1000.0 nM
[4] = target: Dual specificity protein kinase CLK3 (Homo sapiens) (UniProt P49761); settings: Compound concentration 1000.0 nM
Chain of Dual specificity protein kinase CLK3 (Homo sapiens) (P49761 whole entry, looked up, canonical isoform): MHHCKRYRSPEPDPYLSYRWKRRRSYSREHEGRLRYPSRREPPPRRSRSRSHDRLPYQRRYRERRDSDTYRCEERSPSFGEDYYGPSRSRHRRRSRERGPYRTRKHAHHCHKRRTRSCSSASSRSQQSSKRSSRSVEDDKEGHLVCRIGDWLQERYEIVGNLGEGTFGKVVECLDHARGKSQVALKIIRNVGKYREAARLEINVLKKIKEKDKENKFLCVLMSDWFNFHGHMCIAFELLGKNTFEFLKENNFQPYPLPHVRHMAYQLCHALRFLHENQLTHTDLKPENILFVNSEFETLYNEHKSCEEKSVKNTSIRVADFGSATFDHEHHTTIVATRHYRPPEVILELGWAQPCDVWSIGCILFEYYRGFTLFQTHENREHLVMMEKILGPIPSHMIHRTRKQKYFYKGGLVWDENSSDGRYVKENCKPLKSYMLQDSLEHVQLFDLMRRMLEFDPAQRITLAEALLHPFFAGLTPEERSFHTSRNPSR

[5] = target: Casein kinase I isoform alpha-like (Homo sapiens) (UniProt Q8N752); settings: Compound concentration 1000.0 nM
[6] = target: Death-associated protein kinase 1 (Homo sapiens) (UniProt P53355); settings: Compound concentration 1000.0 nM
[7] = tested on: Epidermal growth factor receptor (Homo sapiens), P00533 [L861Q]; settings: Compound concentration 1000.0 nM
[8] = target: Ephrin type-A receptor 3 (Homo sapiens) (UniProt P29320); settings: Compound concentration 1000.0 nM
Chain of Ephrin type-A receptor 3 (Homo sapiens) (P29320 whole entry): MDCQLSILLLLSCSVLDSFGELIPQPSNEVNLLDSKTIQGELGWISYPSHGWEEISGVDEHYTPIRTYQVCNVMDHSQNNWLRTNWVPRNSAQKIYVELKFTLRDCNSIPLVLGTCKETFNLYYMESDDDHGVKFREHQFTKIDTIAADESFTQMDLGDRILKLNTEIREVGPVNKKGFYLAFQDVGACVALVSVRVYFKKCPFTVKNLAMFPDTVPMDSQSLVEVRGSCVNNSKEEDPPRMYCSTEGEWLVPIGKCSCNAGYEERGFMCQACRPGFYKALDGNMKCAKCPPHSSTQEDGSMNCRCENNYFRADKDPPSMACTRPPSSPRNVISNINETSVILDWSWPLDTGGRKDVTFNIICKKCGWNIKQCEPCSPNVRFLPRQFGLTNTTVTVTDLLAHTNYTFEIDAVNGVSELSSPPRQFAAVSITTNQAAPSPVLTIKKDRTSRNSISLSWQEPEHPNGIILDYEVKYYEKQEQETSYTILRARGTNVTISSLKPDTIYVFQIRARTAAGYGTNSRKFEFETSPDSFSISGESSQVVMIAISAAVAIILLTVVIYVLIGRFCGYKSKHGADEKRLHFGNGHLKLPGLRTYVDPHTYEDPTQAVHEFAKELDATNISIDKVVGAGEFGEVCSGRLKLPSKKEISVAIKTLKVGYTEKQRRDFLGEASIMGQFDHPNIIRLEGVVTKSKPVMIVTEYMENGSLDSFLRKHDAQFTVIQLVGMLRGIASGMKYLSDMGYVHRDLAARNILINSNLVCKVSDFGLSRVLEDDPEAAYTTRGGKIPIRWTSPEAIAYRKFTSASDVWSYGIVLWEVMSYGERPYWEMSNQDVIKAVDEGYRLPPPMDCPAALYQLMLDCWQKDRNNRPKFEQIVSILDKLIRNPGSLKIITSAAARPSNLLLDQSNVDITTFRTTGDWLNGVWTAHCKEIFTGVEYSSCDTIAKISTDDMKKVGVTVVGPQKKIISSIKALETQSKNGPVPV

[9] = target: Ephrin type-B receptor 4 (Homo sapiens) (UniProt P54760); settings: Compound concentration 1000.0 nM
[10] = target: Ephrin type-B receptor 6 (Homo sapiens) (UniProt O15197); settings: Compound concentration 1000.0 nM
[11] = target: Receptor tyrosine-protein kinase erbB-2 (Homo sapiens) (UniProt P04626); settings: Compound concentration 1000.0 nM
[12] = target: Fibroblast growth factor receptor 1 (Homo sapiens) (UniProt P11362); settings: Compound concentration 1000.0 nM
[13] = tested on: Receptor-type tyrosine-protein kinase FLT3 (Homo sapiens), P36888 [D835H]; settings: Compound concentration 1000.0 nM
[14] = tested on: Receptor-type tyrosine-protein kinase FLT3 (Homo sapiens), P36888 [K663Q]; settings: Compound concentration 1000.0 nM
[15] = tested on: Receptor-type tyrosine-protein kinase FLT3 (Homo sapiens), P36888 [N841I]; settings: Compound concentration 1000.0 nM
[16] = target: Cyclin-G-associated kinase (Homo sapiens) (UniProt O14976); settings: Compound concentration 1000.0 nM
[17] = target: Homeodomain-interacting protein kinase 4 (Homo sapiens) (UniProt Q8NE63); settings: Compound concentration 1000.0 nM
[18] = target: Insulin receptor-related protein (Homo sapiens) (UniProt P14616); settings: Compound concentration 1000.0 nM
[19] = target: Mast/stem cell growth factor receptor Kit (Homo sapiens) (UniProt P10721); settings: Compound concentration 1000.0 nM
Chain of Mast/stem cell growth factor receptor Kit (Homo sapiens) (P10721 whole entry): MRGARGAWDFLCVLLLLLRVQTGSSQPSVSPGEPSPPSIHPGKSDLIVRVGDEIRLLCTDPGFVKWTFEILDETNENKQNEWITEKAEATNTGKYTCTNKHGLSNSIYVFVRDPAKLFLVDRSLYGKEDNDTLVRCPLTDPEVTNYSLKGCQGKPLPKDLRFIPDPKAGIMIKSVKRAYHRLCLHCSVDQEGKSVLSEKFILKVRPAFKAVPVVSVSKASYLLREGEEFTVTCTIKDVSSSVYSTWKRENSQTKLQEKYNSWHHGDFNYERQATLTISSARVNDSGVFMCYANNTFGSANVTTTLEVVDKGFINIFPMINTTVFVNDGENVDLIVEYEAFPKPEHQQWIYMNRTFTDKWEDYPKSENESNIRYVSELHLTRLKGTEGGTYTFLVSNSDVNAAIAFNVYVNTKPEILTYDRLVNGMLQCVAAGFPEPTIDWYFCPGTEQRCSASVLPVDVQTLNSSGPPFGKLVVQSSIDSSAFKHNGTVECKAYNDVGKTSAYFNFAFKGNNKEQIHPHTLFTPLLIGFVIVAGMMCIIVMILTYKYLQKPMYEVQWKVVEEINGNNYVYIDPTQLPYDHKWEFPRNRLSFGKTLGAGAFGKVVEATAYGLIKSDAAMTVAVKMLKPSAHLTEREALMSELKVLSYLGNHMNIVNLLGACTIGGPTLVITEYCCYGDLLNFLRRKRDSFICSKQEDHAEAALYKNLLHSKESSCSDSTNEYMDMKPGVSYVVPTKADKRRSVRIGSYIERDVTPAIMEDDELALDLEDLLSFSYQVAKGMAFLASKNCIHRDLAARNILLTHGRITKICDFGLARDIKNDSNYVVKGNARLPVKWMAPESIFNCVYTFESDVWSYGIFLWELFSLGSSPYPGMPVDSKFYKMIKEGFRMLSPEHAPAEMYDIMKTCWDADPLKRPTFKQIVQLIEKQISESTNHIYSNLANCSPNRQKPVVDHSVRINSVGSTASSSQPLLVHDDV

[20] = target: Serine/threonine-protein kinase LATS2 (Homo sapiens) (UniProt Q9NRM7); settings: Compound concentration 1000.0 nM
[21] = target: Mitogen-activated protein kinase kinase kinase kinase 2 (Homo sapiens) (UniProt Q12851); settings: Compound concentration 1000.0 nM
[22] = target: Microtubule-associated serine/threonine-protein kinase 1 (Homo sapiens) (UniProt Q9Y2H9); settings: Compound concentration 1000.0 nM
[23] = target: Maternal embryonic leucine zipper kinase (Homo sapiens) (UniProt Q14680); settings: Compound concentration 1000.0 nM
[24] = tested on: Hepatocyte growth factor receptor (Homo sapiens), P08581 [Y1235D]; settings: Compound concentration 1000.0 nM
[25] = target: MAP kinase-interacting serine/threonine-protein kinase 2 (Homo sapiens) (UniProt Q9HBH9); settings: Compound concentration 1000.0 nM
[26] = target: Muscle, skeletal receptor tyrosine-protein kinase (Homo sapiens) (UniProt O15146); settings: Compound concentration 1000.0 nM
[27] = target: Serine/threonine-protein kinase Nek2 (Homo sapiens) (UniProt P51955); settings: Compound concentration 1000.0 nM
Chain of Serine/threonine-protein kinase Nek2 (Homo sapiens) (P51955 whole entry): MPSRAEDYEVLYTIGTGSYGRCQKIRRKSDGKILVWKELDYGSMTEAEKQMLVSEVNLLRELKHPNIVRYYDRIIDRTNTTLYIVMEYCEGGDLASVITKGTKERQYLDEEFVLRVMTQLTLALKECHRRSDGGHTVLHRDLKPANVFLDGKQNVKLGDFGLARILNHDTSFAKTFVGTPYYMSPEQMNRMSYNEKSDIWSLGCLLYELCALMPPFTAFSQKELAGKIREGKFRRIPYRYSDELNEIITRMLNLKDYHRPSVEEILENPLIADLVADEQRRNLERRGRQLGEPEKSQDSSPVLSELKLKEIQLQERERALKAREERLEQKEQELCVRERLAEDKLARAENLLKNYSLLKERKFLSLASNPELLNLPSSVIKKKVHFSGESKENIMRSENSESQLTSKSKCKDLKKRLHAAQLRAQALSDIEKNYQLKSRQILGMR

[28] = target: Serine/threonine-protein kinase Nek6 (Homo sapiens) (UniProt Q9HC98); settings: Compound concentration 1000.0 nM
[29] = target: Serine/threonine-protein kinase Nek9 (Homo sapiens) (UniProt Q8TD19); settings: Compound concentration 1000.0 nM
[30] = target: Serine/threonine-protein kinase NIM1 (Homo sapiens) (UniProt Q8IY84); settings: Compound concentration 1000.0 nM
[31] = target: Platelet-derived growth factor receptor beta (Homo sapiens) (UniProt P09619); settings: Compound concentration 1000.0 nM
[32] = tested on: Phosphatidylinositol 4,5-bisphosphate 3-kinase catalytic subunit alpha isoform (Homo sapiens), P42336 [E542K]; settings: Compound concentration 1000.0 nM
[33] = target: Phosphatidylinositol 4,5-bisphosphate 3-kinase catalytic subunit gamma isoform (Homo sapiens) (UniProt P48736); settings: Compound concentration 1000.0 nM
[34] = target: Serine/threonine-protein kinase N2 (Homo sapiens) (UniProt Q16513); settings: Compound concentration 1000.0 nM
[35] = target: Serine/threonine-protein kinase PLK1 (Homo sapiens) (UniProt P53350); settings: Compound concentration 1000.0 nM
Chain of Serine/threonine-protein kinase PLK1 (Homo sapiens) (P53350 whole entry): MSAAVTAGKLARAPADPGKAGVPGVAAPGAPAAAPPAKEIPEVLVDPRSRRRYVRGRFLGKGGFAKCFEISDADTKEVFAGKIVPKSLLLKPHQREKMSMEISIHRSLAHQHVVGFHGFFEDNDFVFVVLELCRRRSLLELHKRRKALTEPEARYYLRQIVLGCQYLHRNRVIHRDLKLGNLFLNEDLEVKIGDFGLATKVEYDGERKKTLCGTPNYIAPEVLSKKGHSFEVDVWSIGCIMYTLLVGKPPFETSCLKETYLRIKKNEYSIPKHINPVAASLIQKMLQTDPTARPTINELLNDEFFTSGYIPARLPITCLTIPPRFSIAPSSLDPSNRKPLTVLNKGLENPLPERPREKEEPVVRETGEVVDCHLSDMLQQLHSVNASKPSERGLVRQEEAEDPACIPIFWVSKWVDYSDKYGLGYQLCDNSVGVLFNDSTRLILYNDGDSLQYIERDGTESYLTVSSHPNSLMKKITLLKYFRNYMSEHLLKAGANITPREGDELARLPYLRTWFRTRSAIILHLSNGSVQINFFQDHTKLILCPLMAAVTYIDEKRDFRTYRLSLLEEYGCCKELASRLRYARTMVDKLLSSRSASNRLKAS

[36] = target: Serine/threonine-protein kinase SIK3 (Homo sapiens) (UniProt Q9Y2K2); settings: Compound concentration 1000.0 nM
Chain of Serine/threonine-protein kinase SIK3 (Homo sapiens) (Q9Y2K2 whole entry, looked up): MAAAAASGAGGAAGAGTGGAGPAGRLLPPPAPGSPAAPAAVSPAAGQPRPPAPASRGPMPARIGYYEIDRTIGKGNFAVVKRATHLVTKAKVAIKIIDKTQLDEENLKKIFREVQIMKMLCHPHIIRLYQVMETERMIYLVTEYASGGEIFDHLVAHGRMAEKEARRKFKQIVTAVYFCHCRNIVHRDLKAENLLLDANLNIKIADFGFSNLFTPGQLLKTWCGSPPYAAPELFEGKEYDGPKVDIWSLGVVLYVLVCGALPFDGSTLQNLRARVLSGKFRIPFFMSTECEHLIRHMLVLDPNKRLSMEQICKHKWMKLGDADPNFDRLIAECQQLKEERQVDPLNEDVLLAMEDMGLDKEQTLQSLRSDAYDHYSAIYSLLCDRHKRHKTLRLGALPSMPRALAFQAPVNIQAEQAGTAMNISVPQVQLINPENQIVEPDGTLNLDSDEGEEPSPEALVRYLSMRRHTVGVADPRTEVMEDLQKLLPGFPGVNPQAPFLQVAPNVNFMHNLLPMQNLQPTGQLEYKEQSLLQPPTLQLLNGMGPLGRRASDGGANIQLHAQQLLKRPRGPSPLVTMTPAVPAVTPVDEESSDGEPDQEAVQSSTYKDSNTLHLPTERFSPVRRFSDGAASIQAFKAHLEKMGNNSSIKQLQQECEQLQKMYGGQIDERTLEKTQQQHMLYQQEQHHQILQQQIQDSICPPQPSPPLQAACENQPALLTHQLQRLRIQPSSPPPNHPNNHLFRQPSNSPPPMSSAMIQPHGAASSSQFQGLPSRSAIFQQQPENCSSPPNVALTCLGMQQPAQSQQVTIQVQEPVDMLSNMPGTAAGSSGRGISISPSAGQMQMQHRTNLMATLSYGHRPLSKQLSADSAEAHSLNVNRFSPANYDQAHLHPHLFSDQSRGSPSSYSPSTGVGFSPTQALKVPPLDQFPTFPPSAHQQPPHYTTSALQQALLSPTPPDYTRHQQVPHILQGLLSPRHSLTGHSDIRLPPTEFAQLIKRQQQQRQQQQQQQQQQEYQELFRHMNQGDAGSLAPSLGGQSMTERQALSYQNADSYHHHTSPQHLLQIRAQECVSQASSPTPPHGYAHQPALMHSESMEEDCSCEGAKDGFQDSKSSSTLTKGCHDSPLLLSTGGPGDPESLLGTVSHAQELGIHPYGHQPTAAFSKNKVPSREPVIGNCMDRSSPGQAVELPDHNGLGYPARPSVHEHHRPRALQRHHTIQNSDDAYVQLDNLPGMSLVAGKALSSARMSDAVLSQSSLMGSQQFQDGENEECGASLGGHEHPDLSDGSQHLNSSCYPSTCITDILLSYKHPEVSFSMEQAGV

[37] = tested on: Proto-oncogene tyrosine-protein kinase receptor Ret (Homo sapiens), P07949 [M918T]; settings: Compound concentration 1000.0 nM
[38] = target: Serine/threonine-protein kinase RIO1 (Homo sapiens) (UniProt Q9BRS2); settings: Compound concentration 1000.0 nM
[39] = target: Serine/threonine-protein kinase Sgk2 (Homo sapiens) (UniProt Q9HBY8); settings: Compound concentration 1000.0 nM
[40] = target: Serine/threonine-protein kinase Sgk3 (Homo sapiens) (UniProt Q96BR1); settings: Compound concentration 1000.0 nM
[41] = target: SRSF protein kinase 2 (Homo sapiens) (UniProt P78362); settings: Compound concentration 1000.0 nM
[42] = target: Serine/threonine-protein kinase WNK3 (Homo sapiens) (UniProt Q9BYP7); settings: Compound concentration 1000.0 nM
[43] = target: GABA-A receptor; anion channel (Rattus norvegicus) (UniProt O09028+P15431+P18506+P18508+P19969+P20236+P23574+P23576+P28471+P28473+P30191+P62813+P63079+P63138+Q91ZM7+Q9ES14); settings: Compound concentration 10.0 uM

FC(F)(F)c1ccc2c(c1)nc(-c1cccnc1)n2C1CC1 [MSD-CYP11B2-Negative-control]
inactive: residual activity [1] 100% | residual activity [2] 100% | residual activity [3] 88% | residual activity [4] 100% | residual activity [5] 100% | residual activity [6] 100% | residual activity [7] 100% | residual activity [8] 100% | residual activity [9] 100% | residual activity [10] 100% | residual activity [11] 100% | residual activity [12] 100% | residual activity [13] 69% | residual activity [14] 100% | residual activity [15] 100% | residual activity [16] 100% | residual activity [17] 100% | residual activity [18] 100% | residual activity [19] 85% | residual activity [20] 100% | residual activity [21] 73% | residual activity [22] 100% | residual activity [23] 94% | residual activity [24] 100% | residual activity [25] 100% | residual activity [26] 100% | residual activity [27] 100% | residual activity [28] 100% | residual activity [29] 100% | residual activity [30] 100% | residual activity [31] 100% | residual activity [32] 100% | residual activity [33] 92% | residual activity [34] 100% | residual activity [35] 96% | residual activity [36] 100% | residual activity [37] 91% | residual activity [38] 100% | residual activity [39] 100% | residual activity [40] 100% | residual activity [41] 93% | residual activity [42] 100% | inhibition [43] 2.02%

CC(C)(O)c1cncc(-c2nc3ccc(F)cc3n2C2CC2)c1 [MSD-CYP11B2]
inactive: residual activity [1] 100% | residual activity [2] 100% | residual activity [3] 94% | residual activity [4] 100% | residual activity [5] 100% | residual activity [6] 100% | residual activity [7] 100% | residual activity [8] 100% | residual activity [9] 100% | residual activity [10] 100% | residual activity [11] 100% | residual activity [12] 100% | residual activity [13] 89% | residual activity [14] 100% | residual activity [15] 100% | residual activity [16] 100% | residual activity [17] 100% | residual activity [18] 100% | residual activity [19] 86% | residual activity [20] 100% | residual activity [21] 98% | residual activity [22] 100% | residual activity [23] 100% | residual activity [24] 100% | residual activity [25] 100% | residual activity [26] 100% | residual activity [27] 100% | residual activity [28] 100% | residual activity [29] 100% | residual activity [30] 100% | residual activity [31] 100% | residual activity [32] 84% | residual activity [33] 77% | residual activity [34] 100% | residual activity [35] 100% | residual activity [36] 97% | residual activity [37] 100% | residual activity [38] 100% | residual activity [39] 100% | residual activity [40] 100% | residual activity [41] 86% | residual activity [42] 100% | inhibition [43] 16.6%
